Laboratory results as given in patent publication US8927547B2, “Pyrimidine derivatives” (Noviga Research AB, priority 2010, dated 2015).

Key:
Assay type in all cases: cell-based
U-937-vcr = experiment: FMCA, U-937-vcr vincristin-resistant lymphoma; settings: read-out: EC50 (μM) in various cancer cell lines: U-937-ver
Text: (§1) The Fluorometric Microculture Cytotoxicity Assay, FMCA, is a three day non-clonogenic microplate-based cell viability assay used for measurement of the cytotoxic and/or cytostatic effect of compounds in vitro (Lindhagen, E., et al. Nat Protoc, 2008. 3(8): p. 1364-9). FMCA (Larsson, R. and P. Nygren, Anticancer Res, 1989. 9(4): p. 1111-9) represents a valuable method to measure cytotoxicity in a number of cell types, both cell lines and primary cells from patients (Larsson, R., et al., Int J Cancer, 1992. 50(2): p. 177-85; Fridborg, H., et al., Eur J Cancer, 1999. 35(3): p. 424-32; Dhar, S., et al., Br J Cancer, 1996. 74(6): p. 888-96).
(§2) FMCA is based on the principle that fluorescein diacetate (FDA) is converted to the fluorescent probe fluorescein by esterases in the plasma membranes of living cells. For experiments, 96 or 384-well microplates are prepared with compounds and stored at −70° C. until use. Cells are then seeded into the drug-prepared plates and placed in an incubator for 72 h. On the last day of incubation, the plates are washed and a buffer containing FDA is added and incubated with the cells for 45 minutes. Finally the fluorescence per well is measured in a fluorometer and a Survival Index % (SI) for each compound-treated well is calculated with the equation: Compound-treated cells minus blank divided by control cells minus blank. A high SI-value indicates a large percentage of living cells and vice versa.
(§3) Compounds of the invention as well as kinase inhibitors sorafenib, sunitinib, dasatinib, and pazopanib (reference compounds) were diluted with PBS to a concentration which was ten-times higher than the desired starting concentration. Then, a Biomek 2000 liquid handling system was employed to serially dilute the compounds in a deep-well 384-well plate. From this plate, assay plates containing 5 μl compound per well were prepared with the Biomek 2000. Certain compounds precipitated when diluted with PBS, and these compounds were therefore prepared in a 96-well plate manually as described above using culture medium RPMI 1640 instead of PBS.
(§4) The compounds were also tested at five concentrations, with five times serial dilution on the following cell types: CCRF-CEM, hTERT-RPE1 (normal retinal epithelial cells), hRPTEpiC (normal renal cells) and PBMC (peripheral blood mononuclear cells). Each experiment was performed three times, except for PBMC and hRPTEpiC, which were performed twice. SI-values were calculated, graphs were plotted using GraphPadPrism 5.0 (GraphPad Software Inc. La Jolla, Calif.) and EC50-values for each cell type and compound were determined from the curves.
(§5) The compounds of the invention were also tested on further cancer cell lines related to colon cancer (HCT116; see e.g Brattain M G, et al. Cancer Res. 1981, 41, 1751-1756), breast cancer (MCF7; see e.g. Soule H D, et al. J. Natl. Cancer Inst. 1973, 51, 1409-1416), teniposide-resistant leukaemia (CEM/VM1; see e.g. Danks M K et al. Cancer Res. 1987, 47, 1297-1301), lung cancer (H69; see e.g. Gazdar A F, et al. Cancer Res. 1980, 40, 3502-3507), doxorubicin-resistant lung cancer (H69AR; see e.g. Mirski S E, et al. Cancer Res. 1987, 47, 2594-2598), myeloma (RPMI 8226; see e.g. Matsuoka Y, et al. Proc. Soc. Exp. Biol. Med. 1967, 125, 1246-1250), doxorubicin-resistant myeloma (8226/Dox40; see e.g. Dalton W S et al. Blood 1989, 15,747-752), lymphoma (U-937, see e.g. Sundstrom C, et al. Int. J. Cancer 1976, 17, 565-577), vincristin-resistant lymphoma (U-937-vcr; see e.g. Botling J, et al. Int J Cancer 1994, 15; 58 (2), 269-274), ovarian cancer (A2780; see e.g. Hamilton T C, et al. Semin Oncol. 1984, 11, 285-298), doxorubicin-resistant ovarian cancer (A2780/Adr), cisplatin-resistant ovarian cancer (A2780/Cis; see e.g. Behrens B C, et al. Cancer Res. 1987, 47, 414-418), renal cancer (ACHN; see e.g. Borden E C, et al. Cancer Res. 1982, 42(12), 4948-4953), pancreatic cancer (PANC-1, BxPC-3, and MIA PaCa-2; see e.g. Lieber M, et al. Int. […]

PANC-1 = experiment: FMCA, PANC-1 pancreatic cancer; settings: Homo sapiens, read-out: EC50 (μM) in various cancer cell lines: PANC-1
Text: as §1
as §2, with “versa. […]” for “versa.”
as §4, with “Each experiment was performed three times, except for PBMC and hRPTEpiC, which were performed twice.” left out, “curves. […]” for “curves.”

A2780 = experiment: FMCA, A2780 ovarian cancer; settings: Homo sapiens, read-out: EC50 (μM) in various cancer cell lines: A2780
Text: as §1, §2, §3, §4, §5

8226/Dox40 = experiment: FMCA, 8226/Dox40 doxorubicin-resistant myeloma; settings: read-out: EC50 (μM) in various cancer cell lines: 8226/Dox40
Text: as §1, §2, §3, §4, §5

ACHN = experiment: FMCA, ACHN renal cancer; settings: Homo sapiens, read-out: EC50 (μM) in various cancer cell lines: ACHN
Text: as §1, §2, §3, §4, §5

U-937 = experiment: FMCA, U-937 lymphoma; settings: Homo sapiens, read-out: EC50 (μM) in various cancer cell lines: U-937
Text: as §1, §2, §3, §4, §5

RPMI 8226 = experiment: FMCA, RPMI 8226 myeloma; settings: Homo sapiens, read-out: EC50 (μM) in various cancer cell lines: RPMI 8226
Text: as §1, §2, §3, §4, §5

CEM/VM1 = experiment: FMCA, CEM/VM1 teniposide-resistant leukaemia; settings: Homo sapiens, read-out: EC50 (μM) in various cancer cell lines: CEM/VM1
Text: as §1, §2, §3, §4, §5

EC50 (U-937-vcr): 0.34 µM | EC50 (PANC-1): < 0.1 µM | EC50 (A2780): 0.45 µM | EC50 (8226/Dox40): 2.02 µM | EC50 (ACHN): 3.08 µM | EC50 (U-937): 0.29 µM | EC50 (RPMI 8226): 0.81 µM | EC50 (CEM/VM1): 0.23 µM
Structure (SMILES): Cc1cc(NCc2ccc3[nH]ncc3c2)nc(Nc2cccc3[nH]ccc23)n1 [Example 37, N^4-(1H-indazol-5-ylmethyl)-N^2-(1H-indol-4-yl)-6-methylpyrimidine-2,4-diamine]
